Data set [1] can be described thus: LC/MS quantification of felbamate and metabolites in patient urine. It counts as in vivo, patients. The method, then:
Preparation of Patient Urine Samples. Urine samples were obtained from patient volunteers undergoing felbamate therapy for control of epileptic seizures and under the care of physicians at either the University of Virginia (Charlottesville, Virginia) or the EpiCare Center (Memphis, Tennessee). Urine samples were diluted four fold with distilled water (this was done prior to overnight shipment for samples requiring shipping) and placed in an orbital shaking water bath for ∼ 20 min at 37 °C to insure that all of the analytes were in solution. 500 µL of this diluted sample were removed and added to 100 µL of a mixture of the four deuterated internal standards. […] After mixing, 200 µL were removed and added to 20 µL of 20% H0Ac. This acidified sample was then applied to a preconditioned Waters "Oasis" solid phase extraction cartridge (Waters Corp., Woburn, MA). The cartridge was washed with 2 mL 0.1% HOAc followed by 3 mL 10% CH3CN/90% water (0.1 %) H0Ac. The analytes and internal standards were then eluted with 3 mL 30% CH3CN:70% (0.1 %) HOAc. This fraction was then analyzed by LC/MS without further manipulation.
LC/MS Analysis of Urine Samples for Metabolite Quantification. LC/MS analysis was performed using a Waters 2690 HPLC equipped with an autosampler and a Waters 486 tunable absorbance detector. This LC system was interfaced to a Finnigan MAT LCQ ion trap mass spectrometer. A 10 µL injection of the fraction from solid phase extraction was applied to a Waters Symmetry C8 reversed phase column (33% CH3CN:67% (0.1%) H0Ac, 2.1 mm x 150 mm, 0.2 mL/min). The post-column flow was directed through a Waters 486 tunable absorbance detector (10 µL flow cell, λ = 214 nm) which was used for qualitative assessment of the sample and not for quantitation. The flow was then directed to the electrospray ionization source of the LCQ.
The mass spectrometer was programmed to collect data in full scan mode from 190 - 320 m/z and was tuned to maximize the signal from the analytes under the HPLC conditions. The values for the electrospray parameters were as follows: heated capillary temperature = 180°C; spray voltage = 5.6 kV; capillary voltage = 20 V; sheath gas (nitrogen) flow rate = 70; auxillary gas (helium) flow rate = 20. The automatic gain control (AGC) was on with a target ion count of 7 x 10^7 ions and a maximum ion inject time of 150 ms. […]
Quantification was achieved by integration of the peaks from the mass chromatogram for each analyte using software (Navigator 1.1) provided with the LCQ. The area (expressed as counts x seconds) of the peak for each metabolite was compared to the area for its corresponding deuterated internal standard. As the absolute amount of internal standard added per mL of urine was known, the absolute amount of analyte per mL of urine could be determined.

For data set [2] the following is noted: patients on felbamate monotherapy; cited from earlier work.
Data set [3] deals with painful peripheral neuropathy. The note with it: rat model of painful peripheral neuropathy; cited from earlier work.
The nature of data set [4]: Stability of oxazinane-dione at relevant pH. The data set is classed as physicochemical. An excerpt: It is anticipated, therefore, that the oxazinane-dione 9 is responsible for some aspects of felbamate's efficacy in vivo. As patients undergoing felbamate therapy for seizure control ingest large quantities of felbamate (grams per day), even a 1 - 2% conversion to a pharmacologically active metabolite could have significant effects. […] In light of the possibility that the oxazinane-dione 9 could be a metabolic precursor to the major human metabolite, acid carbamate 4, it may be formed in significant quantities (the acid carbamate was reported to represent ∼ 12% of a dose). […] Also included in this class are cyclic congeners 21 and 22, which may be formed from felbamate derivatives (see scheme II). Also included is 20, which may be an unknown metabolite of felbamate 1 and could be produced from felbamate derivative 12 by the cytochrome P450 metabolism.

Setting [5] is: urine of patients on felbamate therapy, 34 samples.

With `NC(=O)OCC(COC(N)=O)c1ccccc1` [felbamate, 2-phenyl-1,3-propanediol dicarbamate], the “amount of felbamate excreted per mL of urine” value in data set [1] (patient with total daily dose of 3.6 grams of felbamate (lowest of range)) was 819 ± 8.5 nmol/mL; in data set [1] (patient with total daily dose of 6.0 grams of felbamate (highest of range)) it was 10,064 ± 515 nMoles/mL. Further, the Weight loss in data set [2] is on record as 4-5%. Also, the “effect on measures of pain (in words)” value in data set [3] is “significant reductions in all measures of pain”.
Turning to `CC(=O)N[C@@H](CSCC(CO)c1ccccc1)C(=O)O` (stereo partly shown) [Nac-alcohol], in data set [1] (setting [5]), the “average ratio of Nac-alcohol to Nac-acid” value is listed as 6.4 and the “ratio of Nac-alcohol to Nac-acid (range over patients)” value is reported as 2- 14.
`O=C1NC(=O)C(c2ccccc2)CO1` (stereo not shown) [oxazinane-dione 9]: the “stability at relevant pH (in words)” value in data set [4] is “unstable”.
